Values quoted from earlier work, collected in patent US4894235A, “Nifedipine-containing form of administration and method for its production” (Dr. Rentschler, Arzneimmittel GmbH & Co., priority 1984, dated 1990).

Assays:
[1] = influence of light
[2] = Ramsch, Selecta 10, p. 860, 1983

## COC(=O)C1=C(C)NC(C)=C(C(=O)OC)C1c1ccccc1[N+](=O)[O-] [Nifedipine, 1,4-dihydro-2,6-dimethyl-4-(2-nitrophenyl)-3,5-pyridine-dicarboxylic acid-dimethylester]
[1]
  photo-sensitivity: very photo-sensitive
[2]
  lower limit for blood plasma levels: 10 to 15 nanograms per milliliter
